Results on 1 compound are retold here after patent US20150079176A1, “ANTI-OXIDANT SYNERGY FORMULATION NANOEMULSIONS TO TREAT CANCER” (University of Massachusetts Lowell, priority 2005, published 2015).

For one assay, the system named is HTB-20. Briefly: HTB-20 cell culture growth (Coulter Counter cell counting). It is filed as cell-based, Human. The method, then:
(§1) Human breast cancer cell lines MCF-7 and HTB-20 were subcultured in flasks accompanied by daily changes of medium comprising RPMI 1640 supplemented with fetal bovine serum (10%, v/v). The cultures were maintained in a humidified chamber at 37° C. with 5% CO2 and 95% air. The cells were harvested at confluency by trypsinzation and suspended at a cell density of 200,000 to 300,000 cells/ml in a small volume of the growth medium to be used.
(§2) In a typical experiment in which the effects of the anti-cancer nanoemulsions on cell growth were to be examined, aliquots of the cell suspension containing about 20,000 to 30,000 cells were replicately plated in dishes containing 3 ml of the growth medium consisting of RPMI 1640 supplemented with charcoal-stripped fetal bovine serum (5%, v/v) and of penicillin-streptomycin (10 units and 10 μg, respectively) and mycostatin (2.5 units/ml) and incubated at 37° C. in the humidified chamber. On day 1 when the cell adhered firmly to the bottom surface of the dishes, the medium was aspirated off and the cells then challenged by the anti-cancer nanoemulsions; groups of replicate dishes received 3 ml of fresh growth medium containing either ASF or tamoxifen at the indicated concentrations. The control groups received only the microfluidized nanoemulsion and ASF or tamoxifen in free solution.
(§3) At various time intervals (i.e., Days 1-17), triplicate dishes were withdrawn for cell counting; after removal of the medium by aspiration, the adhered cells were washed twice with 1 ml of Eagles balanced salt solution without Ca^2+ and Mg^2+ and dislodged from the dish by trypsinization involving the incubation of 0.5 ml of trypsin-EDTA solution (IX) for 5 minutes at 37° C., after which the protease reaction was stopped by adding 2.5 ml of a “stop” medium consisting of RPMI 1640 and 5% fetal calf serum. The cells were then collected by centrifugation with subsequent suspension in the medium. An aliquot of the suspension was subjected to cell counting using a Coulter Counter (data expressed as 10^6 cells per dish).

Another assay relates to MCF-7. The experiment in a line: MCF-7 cell culture growth (Coulter Counter cell counting). It is filed as cell-based, Human. On the procedure:
as §1, §2, §3

On to `CC/C(=C(\c1ccccc1)c1ccc(OCCN(C)C)cc1)c1ccccc1` [Tamoxifen In Free Solution, tamoxifen], for which the cell count is on record as 4 106 cells per dish in the assay with HTB-20 (HTB-20, 1 day of incubation); 12 106 cells per dish in the assay on HTB-20 (HTB-20, 3 days of incubation); 24 106 cells per dish with HTB-20 (HTB-20, 5 days of incubation); 28 106 cells per dish in the assay on HTB-20 (HTB-20, 7 days of incubation); 41 106 cells per dish in the assay on HTB-20 (HTB-20, 10 days of incubation); 51 106 cells per dish in the assay on HTB-20 (HTB-20, 12 days of incubation). The cell count is 5 106 cells per dish with MCF-7 (MCF-7, 5 days of incubation); 19 106 cells per dish in the assay with MCF-7 (MCF-7, 8 days of incubation); 25 106 cells per dish in the assay on MCF-7 (MCF-7, 10 days of incubation); 33 106 cells per dish in the assay with MCF-7 (MCF-7, 12 days of incubation); 50 106 cells per dish in the assay with MCF-7 (MCF-7, 15 days of incubation); 67.5 106 cells per dish in the assay on MCF-7 (MCF-7, 17 days of incubation). Moreover, the “improvement of time-course of tamoxifen-induced apoptosis” value with HTB-20 (HTB-20, applied as a microfluidized nanoemulsion vs free solution) is listed as 2-10 fold; in the assay on MCF-7 (MCF-7, applied as a microfluidized nanoemulsion vs free solution), 2-10 fold.
